Test results reported in US20240299294A1, “TARGETED DELIVERY OF EFFECTIVE THERAPEUTIC MEDICATIONS TO THE RESPIRATORY TRACT” (Amphastar Pharmaceuticals, Inc., priority 2020, published 2024).
Like-named read-outs stand apart in the source and are kept apart here.

Columns and labels:
[1] = Dose range and dose response study of HCQ for lung delivery (Example 9); details: mouse, in vivo, 16 sprays
[2] = cited from earlier work
mice = test: 5-day repeated-dose local and systemic toxicity study of HCQ inhalation (Example 12); assay type: in vivo
Description: A total of 200 mice were used, in which 40 mice (male:female=1:1) were assigned to each study arm.
Mice were dosed four sessions a day for 5 days, with 3 hours interval between two consecutive treatment sessions. Each session was a 6-minute nose-only inhalation treatment after spraying the designated articles (4, 8 or 16 sprays) into the 21.5 L breathing tank.
After the treatment, 24 mice (male:female=1:1) were sacrificed on Day 6 (or Day-1 post completion of treatment, PCT Day-1) for acute toxicity evaluation and 16 mice (male:female=1:1) were sacrificed on Day 19 (PCT Day-14) for recovery evaluation.
Standard local toxicity evaluation items included: (1) general safety including in-life daily observation and body weight measurement; (2) gross macroscopic observation and organ weight measurement; (3) clinical pathology including hematology and blood chemistry tests; and (4) microscopic histopathological examination.

[3] = Estimation of HCQ concentration in alveolar lining fluid (ALF) (Example 11); details: mouse, in vivo, 10 sprays
[4] = Cell viability (MTT) assay, CC50, Study APS002-1; assay type: cell-based; details: African green monkey, Vero E6-TMPRSS2 cells
Description: In the antiviral cell assay, Vero E6-TMPRSS2 cells were seeded into 96 well plates and grown to 80-90% confluency. Compounds were prepared using an 8-point, half-log (˜3-fold) dilution starting at 100 μM. Vehicle (Placebo) and positive control (Remdesivir) wells were included to control for any influence on cell viability. After one hour, compounds were removed and virus was added at a single concentration (100× Median Tissue Culture Infectious Dose (TCID50)), together with equivalent serial dilutions of test compound. Following infection/treatment, cells were incubated for a further hour. After infection, virus/treatment was removed and an overlay medium was added to the cells, together with equivalent serial dilutions of test compound. Cells were visually inspected daily for the appearance of any cytopathic effect (“CPE”). A cell viability (MTT) assay was performed once CPE was complete.

[5] = in vivo
in vivo [6] = details: mouse
Description: For the single-dose study, 48 mice were treated with the highest dose level (16 sprays) of Formulation 11. Twelve time points were measured: baseline (within one hour before dosing), 5 min, 15 min, 30 min, 1 h, 2 h, 3 h, 4 h, 6 h, 9 h, 24 h and 48 h post dosing. Each animal was sampled twice at two different time points and four mice per gender were used at each time point.

in vivo [7] = details: mouse; remark: listed apart in the source
in vivo [8] = test: in vivo; design: species or system mice; details: mouse
Description: The breathing tank 400 is a specially designed stainless steel breathing tank, which is used for mice to breathe in aerosolized formulations of the medications described earlier in the Examples. At the start of each treatment session, a specific number of sprays of a medication formulation were sprayed into the pre-cleaned tank. To ensure consistent concentration of test article, a stirring fan installed inside the tank was started at a speed of 400 rpm before the first spray of the test articles (such as, the medications). Thirty seconds after the last spray, eight mice were mounted to the inhalation chamber to breathe in aerosolized formulations of the medications from the breathing tank for a specified duration. Animals were then taken off the breathing tank (defined as the “0” time point post dosing).
The purpose of the study is to evaluate the lung delivery characteristics of single dose HCQ inhalation in a mouse model. […] Thirty seconds after the last spray (t=0 minute), eight mice were mounted to the inhalation chamber to breathe the medication aerosol from the breathing tank for 10 minutes.
Mice were euthanized and mice lung samples were collected and homogenated at eight time points of 10′, 30′, 45′, 1 h, 2 h, 3 h, 4 h and 6 h after treatment. Four mice were used at each time point and in total 32 mice were studied.

SARS-CoV-2 virus = test: microbe, parasite or virus in culture; assay type: cell-based; details: Severe acute respiratory syndrome coronavirus 2, VeroE6/TMPRSS2

CCN(CCO)CCCC(C)Nc1ccnc2cc(Cl)ccc12 (stereo not drawn) [HCQ, Hydroxychloroquine]
concentration at 0.083 h ([1]; female): 8820 ng/g
concentration at 0.25 h ([1]; female): 4510 ng/g
concentration at 0.5 h ([1]; female): 3560 ng/g
concentration at 1 h ([1]; female): 4040 ng/g
concentration at 3 h ([1]; female): 3250 ng/g
concentration at 24 h ([1]; female): 339 ng/g
concentration at 0.083 h ([1]; male): 9510 ng/g
concentration at 0.25 h ([1]; male): 4740 ng/g
concentration at 0.5 h ([1]; male): 4680 ng/g
concentration at 1 h ([1]; male): 3660 ng/g
concentration at 3 h ([1]; male): 3300 ng/g
concentration at 24 h ([1]; male): 277 ng/g
half-life ([2]; HCQ oral tablet delivery): 123.5 days
share of oral tablet dose distributed to the plasma and ultimately reaching the lungs and alveoli ([2]; in vivo, po): about 0.07%
local toxicity, nasal turbinates and larynx (mice; Formulation 11, PCT-Day 1): low incidence of minor changes
histopathological finding in the thymus (mice; mouse, in vivo): minimal to mild tingible body macrophages
local toxicity, histopathological examination of six organs (mice; mouse, in vivo): No dose related abnormalities
concentration at 10 min [3]: 476 µM
concentration at 6 h [3]: 188 µM
CC50 [4]: > 100 µM
time the delivered medication can be detected in the mouse lungs [5]: no less than 24 h
half-life (in vivo [6]; both): ≥ 4 h
Kp (in vivo [6]; both, in vivo, 16 sprays): ≥ 25
Kp at 0.083 h (in vivo [6]; female, in vivo, 16 sprays): 66.3
Kp at 0.25 h (in vivo [6]; female, in vivo, 16 sprays): 50.6
Kp at 0.5 h (in vivo [6]; female, in vivo, 16 sprays): 38
Kp at 1 h (in vivo [6]; female, in vivo, 16 sprays): 100
Kp at 3 h (in vivo [6]; female, in vivo, 16 sprays): 193
Kp at 24 h (in vivo [6]; female, in vivo, 16 sprays): 26.9
concentration at 0.083 h (in vivo [6]; female, in vivo, 16 sprays): 133 ng/mL
concentration at 0.25 h (in vivo [6]; female, in vivo, 16 sprays): 89.2 ng/mL
concentration at 0.5 h (in vivo [6]; female, in vivo, 16 sprays): 93.6 ng/mL
concentration at 1 h (in vivo [6]; female, in vivo, 16 sprays): 40.2 ng/mL
concentration at 3 h (in vivo [6]; female, in vivo, 16 sprays): 16.8 ng/mL
concentration at 24 h (in vivo [6]; female, in vivo, 16 sprays): 12.6 ng/mL
Kp at 0.083 h (in vivo [6]; male, in vivo, 16 sprays): 58.4
Kp at 0.25 h (in vivo [6]; male, in vivo, 16 sprays): 51.5
Kp at 0.5 h (in vivo [6]; male, in vivo, 16 sprays): 85.2
Kp at 1 h (in vivo [6]; male, in vivo, 16 sprays): 90.9
Kp at 3 h (in vivo [6]; male, in vivo, 16 sprays): 250
Kp at 24 h (in vivo [6]; male, in vivo, 16 sprays): 56.5
concentration at 0.083 h (in vivo [6]; male, in vivo, 16 sprays): 163 ng/mL
concentration at 0.25 h (in vivo [6]; male, in vivo, 16 sprays): 92 ng/mL
concentration at 0.5 h (in vivo [6]; male, in vivo, 16 sprays): 55 ng/mL
concentration at 1 h (in vivo [6]; male, in vivo, 16 sprays): 40.2 ng/mL
concentration at 3 h (in vivo [6]; male, in vivo, 16 sprays): 13.2 ng/mL
concentration at 24 h (in vivo [6]; male, in vivo, 16 sprays): 4.9 ng/mL
half-life (in vivo [7]; both): 6 to 8 h
half-life (in vivo [7]): 4.6 to 7.8 h
appearance of mice after the treatment (in vivo [8]): appeared healthy and normal
half-life (in vivo [8]; inhaled or intranasal): 4.6 h
EC50 (SARS-CoV-2 virus; Vero E6-TMPRSS2 cells, virus 100× TCID50, read-out: EC50): 11.3 µM

CCC(CC)COC(=O)[C@H](C)N[P@](=O)(OC[C@H]1O[C@@](C#N)(c2ccc3c(N)ncnn23)[C@H](O)[C@@H]1O)Oc1ccccc1 [Remdesivir]
CC50 [4]: > 20 µM
EC50 (SARS-CoV-2 virus): 2.35 µM
